Consider ten molecules from US10787640B2, “Producing mesodermal cell types and methods of using the same” (The Board of Trustees of the Leland Stanford Junior …, priority 2015, dated 2020).

What all share (format): cell-based, human
For experiment [1], the system named is hESC-derived cardiac mesoderm. Put plainly: Cardiac mesoderm differentiation into cardiovascular fates, qPCR. The settings on record: BMP4 30 ng/mL+XAV939 1 μM with FGF2 or FGF receptor antagonists at 100 nM, 48 hours. As to the method:
Day 2 lateral mesoderm was differentiated into day 4 cardiac mesoderm by treating them with 1 μM A8301+30 ng/mL BMP4+1 μM C59+20 ng/mL FGF2 for 48 hrs, or alternatively, with 1 μM A8301+30 ng/mL BMP4+20 ng/mL FGF2 for 24 hrs followed by 25 ng/mL Activin+30 ng/mL BMP4+1 μM C59 for the next 24 hrs (schema in FIG. 5E; positive effect of mid-stage Activin shown in FIG. 12K). Subsequently, day 4 cardiac mesoderm was briefly washed (DMEM/F12) and treated with 30 ng/mL BMP4+1 μM XAV939+200 μg/mL 2-phospho-ascorbic acid (Sigma) for 48-96 hrs to yield day 6-8 cardiomyocyte-containing populations. Spontaneously contracting cardiomyocyte foci were evident from day 8 onwards.
C) To reveal the possible identity of non-cardiac mesoderm lineages that were contaminating cardiac mesoderm-containing cultures, NKX2.5-GFP hESCs were differentiated towards mid primitive streak (day 1) and were differentiated towards a heterogeneous population containing cardiac mesoderm (day 3) by treatment with SB-505124+BMP4+C59 (without FGF2) on days 2-3 of differentiation. FACS was performed on day 3 to purify either NKX2.5-GFP^+ or NKX2.5-GFP^− cells (top subpanels) which were sorted for qPCR (bottom subpanels). Gene expression was normalized to expression of a gene in the NKX2.5-GFP^+ fraction (dotted line). D) Timecourse of gene expression in hESCs differentiating towards mid primitive streak and lateral mesoderm, with treatment by SB-505124+BMP4+C59 on days 2-3 of differentiation. […] G) To assess whether a stabilized vitamin C analog (ascorbic acid-2-phosphate) (AA2P) enhanced cardiac mesoderm differentiation into cardiomyocytes, day 4 hESC-derived cardiac mesoderm was exposed to BMP4 (30 ng/mL)+XAV939 (1 μM) for 48 hours in the presence or absence of 200 μg/mL AA2P and qPCR was conducted of day 6 populations; qPCR data were normalized such that expression values in the highest-expressing sample was normalized=1.0. […] J) In the mouse embryo, endocardium (progenitors to heart-affiliated endothelium) are marked by transient coexpression of pan-heart marker Nkx2.5 together with endothelial markers (Ferdous et al., 2009; Stanley et al., 2002).

Experiment [2] has as its system day 5 hematopoietic intermediates. The experiment in a line: Day 5-7 continued differentiation of hematopoietic intermediates, factor withholding. The settings on record: for GFI1B expression: individually withholding the factor from the 8 factors, 48 hours. As to the method: SOX17^mCherry/+ H9 hESCs (referred to as SOX17-mCherry hESCs throughout this study) were routinely propagated in mTeSR1 (StemCell Technologies)+1% penicillin/streptomycin. They were passaged ˜1:12-1:25 as fine clumps using Accutase (Gibco) onto plates precoated with a Geltrex substratum (Gibco) in mTeSR1 medium supplemented with thiazovivin ([…]; a ROCK inhibitor). After overnight plating, hESCs were washed (DMEM/F12) and differentiated towards posterior PS using BMP4 (15-40 ng/mL, R&D Systems), CHIR99021 ([…]), FGF2 (20 ng/mL, Invitrogen) and PIK90 (100 nM, Calbiochem) for 24 hours, with the optional inclusion of Activin (30 ng/mL, R&D Systems) to induce mid PS. Day 1 mid or posterior PS was subsequently washed (DMEM/F12) and further differentiated using BMP4 (40 ng/mL), GDC-0941 (0.25-2.5 μM, Cellagen Technology), Forskolin (10 μM, Tocris), SB-505124 ([…]), VEGF (100 ng/mL, R&D Systems), XAV939 (1 μM, Tocris) and ascorbic acid-2-phosphate (200 μg/mL, Sigma) for 24 hours. Day 2 cultures were further directed into the definitive hematopoietic lineage/hemogenic precursors by Activin A (15 ng/mL), GDC-0941 (0.25-2.5 μM), VEGF (100 ng/mL), XAV939 (1 μM) and ascorbic acid-2-phosphate (200 μg/mL) for 24 hours. Day 3 definitive hematopoietic progenitors were subsequently differentiated into early Runx1^lowGfi1^low hemogenic intermediates through day 4-5 treatment with BMP4 (50 ng/mL), TTNPB (500 nM), VEGF (100 ng/mL) and XAV939 (1 μM) for 48 hours, supplemented with SB-505124 (2 μM) on day 5. Day 5 populations were then dissociated into single cells, counted and reaggregated in individual wells of a low-adhesion V-bottom or U-bottom 96-well plate (e.g., Thermo Fisher, catalog no. 249952) with ˜15,000-20,000 cells seeded per well. Aggregates were cultured for 48 additional hours until day 7 in BMP4 (50 ng/mL), TTNPB (500 nM), VEGF (100 ng/mL), XAV939 (1 μM), SB-505124 (2 μM), SCF (25-50 ng/mL, R&D Systems), IL6 (10 ng/mL, R&D Systems) and IL6RA (250-1000 ng/mL, R&D Systems). All differentiation was conducted in serum-free CDM2 fully-defined basal media.

Experiment [3] has as its system day 3 early somite progenitors. The experiment in a line: Patterning of early somite progenitors into sclerotome or dermomyotome. As to the method: Day 2 paraxial mesoderm was briefly washed (DMEM/F12) and further differentiated into day 3 early somite/somitomere precursors for 24 hours (1 μM A-83-01+250 nM LDN-193189+1 μM C59+500 nM PD0325901). Subsequently, day 3 early somites were dorsoventrally patterned into either ventral somites/sclerotome (5 nM 21K+1 μM C59) or dorsal somites/dermomyotome (3 μM CHIR99021+150 nM Vismodegib). Sclerotome induction was conducted for 48-72 hours (leading to day 5-6 ventral somite progenitors). […] Media was changed 24 hours for all steps. The Hedgehog agonist 21K, which has been previously described in, e.g., Brunton et al., 2009 the disclosure of which is incorporated herein by reference in its entirety, was commercially synthesized.
Day 3 early somites were briefly washed (DMEM/F12), treated with BMP4+CHIR99021+Vismodegib for 24 hours, washed again (DMEM/F12) and subsequently treated with CHIR99021 (3 μM)+21K (5 nM) for 24 hours. This day 5 dermomyotome was further empirically differentiated towards skeletal muscle-like progeny (using medium containing 2% horse serum, which has been previously described in, e.g., Xu et al. 2013, the disclosure of which is incorporated herein by reference in its entirety) for 12 days, yielding day 17 skeletal muscle-containing populations.
FIG. 11: A) To determine the length of time required for sclerotome differentiation, a qPCR timecourse was performed, encompassing undifferentiated hESCs (D0), day 2 hESC-derived paraxial mesoderm (D2 PXM), day 3 hESC-derived early somite progenitors, and hESC-derived day 3 early somite progenitors that were exposed to sclerotome inductive conditions (5 nM 21K+1 μM C59) for 24 or 48 hours. B) Description of EF1α-BCL2-T2A-GFP lentiviral construct (otherwise known as “C306”; top) and FACS plot of a stably-transduced polyclonal H9 hESC line with near-uniform expression of the BCL2-T2A-GFP transgene (green contour) by comparison to uncolored wild-type hESCs (bottom) (see above methods for details of derivation of the H9 BCL2-T2A-GFP hESC line). C) Higher-magnification picture of BCL2-T2A-GFP hESC-derived sclerotome ectopic bone grafts (originally described above in FIG. 4, panel E), showing that despite the near-ubiquitous expression of GFP throughout the ectopic bone graft (indicating its human provenance), the blood vessels are clearly GFP-negative and therefore presumably derived from the mouse host; scale bar=1 mm. […] L) Description of EF1a-BCL2-T2A-GFP lentiviral construct (otherwise known as “C306”; top) and FACS plot of a stably-transduced polyclonal H9 hESC line with near-uniform expression of the BCL2-T2A-GFP transgene (green contour) by comparison to uncolored wild-type hESCs (bottom) (see the methods described herein for details of derivation of the H9 BCL2-T2A-GFP hESC line). M) Description of UBC-Luciferase-T2A-tdTomato lentiviral construct (top); bioluminescent assay of cultured H9 UBC-Luciferase-T2A-tdTomato hESCs validates that these cells are luciferase-expressing in vitro (bottom).

As for `CCN1CCN(c2ccc(Nc3cc(N(C)C(=O)Nc4c(Cl)c(OC)cc(OC)c4Cl)ncn3)cc2)CC1` [BGJ398], the cardiovascular fate promoted result in experiment [1] is “promoted (pro)epicardium”.
As for `CCN(CC)CCCCNc1ncc2cc(-c3cc(OC)cc(OC)c3)c(NC(=O)NC(C)(C)C)nc2n1` [PD173074, N-[2-[[4-(Diethylamino)butyl]amino]-6-(3,5-dimethoxyphenyl)pyrido[2,3-d]pyrimidin-7-yl]-N′-(1,1-dimethylethyl)urea], the cardiovascular fate promoted entry in experiment [1] is reported as “promoted (pro)epicardium”.
Take “SCF: SCF protein signaling through the KIT receptor”: the GFI1B expression result in experiment [2] is “strongly diminished”.
Turning to AZD4547, the cardiovascular fate promoted entry in experiment [1] is reported as “promoted (pro)epicardium”.
As to IL6: IL6 ligand, in experiment [2], the GFI1B expression result is “strongly diminished”.
Regarding `CN[C@H]1CC[C@H](N(Cc2ccc(OC)c(-c3ccncc3)c2)C(=O)c2sc3c(F)ccc(F)c3c2Cl)CC1` [21K, 3-chloro-4,7-difluoro-N-(4-methoxy-3-(pyridin-4-yl)benzyl)-N-((1r,4r)-4-(methylamino)cyclohexyl)benzo[b]thiophene-2-carboxamide], the sclerotome fate induction entry in experiment [3] (21K with C59, 2-3 days) is listed as “efficiently induced the sclerotome fate”. The EN1 induction entry in experiment [3] (later stage CHIR99021+21K 5 nM, 24-48 hours) is “important to induce EN1”.
As for FGF2: FGF agonist, FGF family ligand, the cardiovascular fate promoted entry in experiment [1] was “promoted endocardium”.
`CS(=O)(=O)c1ccc(C(=O)Nc2ccc(Cl)c(-c3ccccn3)c2)c(Cl)c1` [Vismodegib]: in experiment [3] (CHIR together with Vismodegib), the “dorsal somite marker PAX3 and sclerotome fate” value is listed as “sustained dorsal somite marker PAX3 while inhibiting the sclerotome fate”.
With VEGF, in experiment [2], the GFI1B expression entry is given as “did not markedly impair GFI1B expression”. For the same molecule, the “vein marker NR2F2 expression” value in experiment [2] (withholding the factor) was “increased expression of the vein marker NR2F2”.

B1: IL6RA: soluble IL6 receptor ectodomain (protein)
chain: LAPRRCPAQEVARGVLTSLPGDSVTLTCPGVEPEDNATVHWVLRKPAAGSHPSRWAGMGRRLLLRSVQLHDSGNYSCYRAGRPAGTVHLLVDVPPEEPQLSCFRKSPLSNVVCEWGPRSTPSLTTKAVLLVRKFQNSPAEDFQEPCQYSQESQKFSCQLAVPEGDSSFYIVSMCVASSVGSKFSKTQTFQGCGILQPDPPANITVTAVARNPRWLSVTWQDPHSWNSSFYRLRFELRYRAERSKTFTTWMVKDLQHHCVIHDAWSGLRHVVQLRAQEEFGQGEWSEWSPEAMGTPWTESRSPPAENEVSTPMQALTTNKDDDNILFRDSANATSLPVQDSSSVPLP
In the case of B1, the GFI1B expression entry in experiment [2] is recorded as “strongly diminished”.
